From patent publication US5958682A (priority 1993, dated 1999)
Entries after “also recorded” stand apart in the source; their conditions may differ.

How the values were obtained:
[1] = test system: V79 cells
Method: NADH was used as a co-factor for both enzymes.
All treatments were for 2 hours at 37° C. and the cells were then plated out for their resulting colony forming ability. The nitroreductase concentration was 2 μg/ml and NADH was used as a co-factor. The initial cell density was 2×10^5 /mL.
Various concentrations of the prodrug were incubated with 1 mL of V79 cells (2×10^5 /mL), NADH (500 μL) and NR (2, 5 or 10 μg/mL) in PBS. After 2 h at 37° C., the cells were harvested and assayed for colony forming ability.

[2] = test system: TK-expressing NIH3T3 cells; test: Killing of arrested TK-expressing NIH3T3 cells; assay type: cell-based; details: 10^-8 to 10^-3 M, FIG. 3b
Excerpt: (§1) FIG. 3. Two graphs comparing the nitroreductase/CB 1954 and thymidine kinase/gancyclovir enzyme/prodrug systems.

[3] = molecular target: E. coli nitroreductase (Escherichia coli, UniProt P38489); test: % drug reduction by E. coli nitroreductase during V79 cell treatment; assay type: biochemical; details: 2 hours at 37° C.
Excerpt: The initial cell density was 2×10^5 /mL.

[4] = test system: HB4a/NR cells; test: Cell survival of HB4a/NR cells, plates scored by eye for cell growth; assay type: cell-based, human; details: 2 hour exposure
Method: (§2) Cells were trypsinised and resuspended in fresh media at 2×10^5 cells per mL. They were then treated for two hours with CB 1954 (10 μl of appropriate stock in DMSO). The treated cells were then spun down, washed with fresh media, and plated out in triplicate at various concentrations. Cells were fixed and stained after 14 days incubation at 37° C. in a humidified atmosphere of 5% CO2 and 95% air.
(§3) The plating efficiency of both the HB4a/NR and HB4a/REP8 cell lines was poor and cells only grew when plated at a high initial cell density (1×10^4 per dish). These plates were scored by eye for cell growth. There is a dramatic difference in cell survival between the two cell lines.

[5] = test system: NTR-expressing NIH3T3 cells; test: Killing of serum-deprived (arrested) NTR-expressing NIH3T3 cells; assay type: cell-based; details: arrest by serum deprivation, FIG. 3a
Excerpt: as §1

[6] = Cell survival of HB4a/REP8 cells, plates scored by eye for cell growth; assay type: cell-based; details: human, 2 hour exposure, read-out: dose up to which no cytotoxicity is shown
Method: as §2, §3

[7] = test system: HB4a/NR cells; test: DNA interstrand crosslinks, sedimentation in alkaline sucrose; assay type: cell-based, human
Method: HB4a/NR cells were radiolabelled by growth for 48 hours in [^3 h]-thymidine. The cells were then treated with either 0, 10 or 50 μM CB 1954 for 24 hours and their DNA then analysed by sedimentation in alkaline sucrose.

[8] = test system: nitroreductase-transduced NIH3T3 cells; test: Bystander effect, 3H-thymidine incorporation in mixtures of 3T3-NTR14 and untransduced NIH3T3 cells; assay type: cell-based; details: 50% transduced cells, FIG. 2
Excerpt: FIG. 2. […] Results are plotted as the quantity of ^3 H-thymidine incorporation into live cells […] (Y-axis) versus the percentage of transduced cells in the sample population (X-axis).

[9] = test system: HB4a/NR cells; test: Enzymatic reduction of CB 1954 by HB4a/NR cell lysate (HPLC); assay type: biochemical, human; details: 100 μM CB 1954, 500 μM NADH, pH7, 37° C., FIG. 5
Method: CB 1954 (100 μM) and NADH (500 μM) were incubated with a cell lysate prepared by sonication (250 μl, 1 mg/mL protein) in 10 mM sodium phosphate buffer (pH7) at 37° C. At various times aliquots (10 μl) were injected onto a Partisphere SCX (110×4.7 mm) HPLC column and eluted isocratically (2 ml/min) with 50 mM NaH2 PO4 in 1% (v/v) methanol. The eluate was continuously monitored for absorption at 260, 310, 340 nm using a diode-array detector. Alternatively, [U-^3 H]CB 1954 was added to give an activity of 1.6×10^5 dpm per nmole). Samples (0.3 ml) were collected and their tritium activity determined by liquid scintillation counting. Protein concentration was determined by a standard method (Biorad), calibrated against bovine albumin.

[10] = 50 μM drug + 500 μM NADH, no nitroreductase
[11] = 50 μM drug + nitroreductase 2 μg/ml + 500 μM NADH
[12] = 50 μM drug + nitroreductase 2 μg/ml, no NADH
[13] = 50 μM drug alone, no NADH, no nitroreductase

Cc1c2oc3c(C)ccc(C(=O)N[C@@H]4C(=O)N[C@H](C(C)C)C(=O)N5CCC[C@H]5C(=O)N(C)CC(=O)N(C)[C@@H](C(C)C)C(=O)O[C@@H]4C)c3nc-2c(C(=O)N[C@@H]2C(=O)N[C@H](C(C)C)C(=O)N3CCC[C@H]3C(=O)N(C)CC(=O)N(C)[C@@H](C(C)C)C(=O)O[C@@H]2C)c(NC(=O)OCc2ccc([N+](=O)[O-])cc2)c1=O
cytotoxicity of the prodrug in the presence of NR ([1]; NR 2, 5 or 10 μg/mL, NADH, 2 h at 37° C., FIG. 1): greatly enhanced in the presence of NR

Nc1nc(O)c2ncn(COC(CO)CO)c2n1 [GCV, gancyclovir]
effect of cell arrest on killing by the prodrug [2]: prevents GCV killing; also recorded: prevents gancyclovir (GCV) cytotoxicity

NC(=O)c1cc(N(CCCl)CCCl)c([N+](=O)[O-])cc1[N+](=O)[O-] [SN23862, 5-(bis(2'-chloroethyl)amino)-2,4-dinitrobenzamide]
% DRUG REDUCTION [3, 10]: < 1.0% | % DRUG REDUCTION [3, 11]: 95% | % DRUG REDUCTION [3, 12]: < 1.0% | % DRUG REDUCTION [3, 13]: < 1.0%

NC(=O)c1cc(N2CC2)c([N+](=O)[O-])cc1[N+](=O)[O-] [CB 1954, 5-(aziridin-1-yl)-2,4-dinitrobenzamide]
dose at which cytotoxicity is exhibited [4]: 1.0 µM | effect of cell arrest on killing by the prodrug [5]: does not affect their killing; also recorded: does not affect the relative cytotoxicity | MNTC at 2 h [6]: > 100 µM | % DRUG REDUCTION [3, 10]: < 1.0% | % DRUG REDUCTION [3, 11]: 72% | % DRUG REDUCTION [3, 12]: < 1.0% | % DRUG REDUCTION [3, 13]: < 1.0% | DNA breaks ([7]; 10 μM CB 1954 for 24 hours): 25 per 10^9 daltons of DNA | DNA crosslinks ([7]; 10 μM CB 1954 for 24 hours): about 6 per 10^9 daltons of DNA | DNA breaks ([7]; 50 μM CB 1954 for 24 hours): 28 per 10^9 daltons of DNA | DNA crosslinks ([7]; 50 μM CB 1954 for 24 hours): 12 per 10^9 daltons of DNA | inhibition of 3H-thymidine incorporation [8]: 90% | decrease in the concentration of CB 1954 [9]: time dependent decrease

B1: Nitroreductase: E. coli nitroreductase, enzyme that converts the prodrug into a cytotoxic drug (protein)
chain: MDIISVALKRHSTKAFDASKKLTPEQAEQIKTLLQYSPSSTNSQPWHFIVASTEEGKARVAKSAAGNYVFNERKMLDASHVVVFCAKTAMDDVWLKLVVDQEDADGRFATPEAKAANDKGRKFFADMHRKDLHDDAEWMAKQVYLNVGNFLLGVAALGLDAVPIEGFDAAILDAEFGLKEKGYTSLVVVPVGHHSVEDFNATLPKSRLPQNITLTEV
% SURVIVAL ([1]; nitroreductase 2 μg/ml alone, no drug, 2 hours at 37° C.): 94%
